Experiment [1] deals with T1, Endothelin-1 receptor (Rattus norvegicus, UniProt P26684).
T1 sequence (P26684 whole entry): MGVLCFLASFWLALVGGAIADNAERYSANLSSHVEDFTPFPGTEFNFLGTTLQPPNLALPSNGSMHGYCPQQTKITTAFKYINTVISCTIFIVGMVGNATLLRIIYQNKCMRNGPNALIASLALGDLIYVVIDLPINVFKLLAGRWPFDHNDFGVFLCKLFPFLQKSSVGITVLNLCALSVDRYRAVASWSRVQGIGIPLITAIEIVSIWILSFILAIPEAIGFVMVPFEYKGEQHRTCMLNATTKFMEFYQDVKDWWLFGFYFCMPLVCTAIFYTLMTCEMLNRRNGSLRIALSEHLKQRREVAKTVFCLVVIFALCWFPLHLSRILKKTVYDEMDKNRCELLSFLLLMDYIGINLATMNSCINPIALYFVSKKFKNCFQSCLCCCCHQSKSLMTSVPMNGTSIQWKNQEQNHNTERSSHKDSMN
As to the kind of experiment: Binding affinity towards Endothelin A receptor in A10 rat thoracic aorta smooth muscle cells using [125I]ET1 as radioligand (Exp 1).

The target of experiment [2] is T1, Endothelin-1 receptor. Nature of the experiment: Binding affinity towards Endothelin A receptor in A10 rat thoracic aorta smooth muscle cells using [125I]ET1 as radioligand (Exp 2).
Experiment [3] addresses T1, Endothelin-1 receptor. As to the kind of experiment: Binding affinity towards Endothelin A receptor in A10 rat thoracic aorta smooth muscle cells using [125I]ET1 as radioligand.
A further experiment is filed under the species Oryctolagus cuniculus. Nature of the experiment: Effective concentration required for stimulation of vascular contraction tested in vitro using carotid arteries of New Zealand white rabbits. Type of experiment: functional.

Molecules are shown by their SMILES. Positions of bridges follow the written chain, without caps; N, C: chain ends. Non-standard residues stand in square brackets, D forms with d. Residues, ends and D or L forms follow the SMILES beside them. Nle = CCCC[C@H](N)C(=O)O

The record followed here is ChEMBL document CHEMBL1125940 (Bioorg Med Chem Lett, 1991).

A word on the Kd: it is the free concentration of one partner at which half of the binding sites on the other are occupied at equilibrium, for simple one-to-one binding. Higher therefore signals weaker binding. By EC50 is commonly meant the concentration giving half of the maximal effect. Read a low EC50 as an effect from little substance.

In the case of `CCCC[C@@H]1NC(=O)[C@H](CC(C)C)NC(=O)[C@H](CO)NC(=O)[C@H](CO)NC(=O)[C@H](C)NC(=O)[C@H](CO)NC(=O)[C@@H](N)CSSC[C@@H](C(=O)N[C@@H](Cc2cnc[nH]2)C(=O)N[C@@H](CC(C)C)C(=O)N[C@@H](CC(=O)O)C(=O)N[C@H](C(=O)N[C@H](C(=O)N[C@@H](Cc2c[nH]c3ccccc23)C(=O)O)[C@@H](C)CC)[C@@H](C)CC)NC(=O)[C@H](Cc2ccccc2)NC(=O)[C@H](Cc2ccc(O)cc2)NC(=O)[C@H](C(C)C)NC(=O)[C@H](C)NC(=O)[C@H](CCC(=O)O)NC(=O)[C@H](CCCCN)NC(=O)[C@H](CC(=O)O)NC1=O` (H-CSASSL[Nle]DKEAVYFCHLDIIW-OH; disulfide 1-15), the Kd at Endothelin-1 receptor [1] worked out at 0.35 nM; at Endothelin-1 receptor [2], 16.6 nM.
`CC[C@H](C)[C@H](NC(=O)[C@H](CC(=O)O)NC(=O)[C@H](CC(C)C)NC(=O)[C@H](Cc1cnc[nH]1)NC(=O)[C@@H]1CSSC[C@H](N)C(=O)N[C@@H](C)C(=O)N[C@H]2CSSC[C@H](NC(=O)[C@H](CCC(=O)O)NC(=O)[C@H](CCCCN)NC(=O)[C@H](CC(=O)O)NC(=O)[C@H](CCSC)NC(=O)[C@H](CC(C)C)NC(=O)[C@H](CO)NC(=O)[C@H](CO)NC2=O)C(=O)N[C@@H](C(C)C)C(=O)N[C@@H](Cc2ccc(O)cc2)C(=O)N[C@@H](Cc2ccccc2)C(=O)N1)C(=O)N[C@H](C(=O)N[C@@H](Cc1c[nH]c2ccccc12)C(=O)O)[C@@H](C)CC` (H-CACSSLMDKECVYFCHLDIIW-OH; disulfide 1-15, 3-11): the Kd came out at 9.6 nM at Endothelin-1 receptor [1] and 409 nM at Endothelin-1 receptor [2].
Compound `CC[C@H](C)[C@H](NC(=O)[C@H](CC(=O)O)NC(=O)[C@H](CC(C)C)NC(=O)[C@H](C)NC(=O)[C@@H]1CSSC[C@H](N)C(=O)N[C@@H](CO)C(=O)N[C@H]2CSSC[C@H](NC(=O)[C@H](CCC(=O)O)NC(=O)[C@H](CCCCN)NC(=O)[C@H](CC(=O)O)NC(=O)[C@H](CCSC)NC(=O)[C@H](CC(C)C)NC(=O)[C@H](CO)NC(=O)[C@H](CO)NC2=O)C(=O)N[C@@H](C(C)C)C(=O)N[C@@H](Cc2ccc(O)cc2)C(=O)N[C@@H](Cc2ccccc2)C(=O)N1)C(=O)N[C@H](C(=O)N[C@@H](Cc1c[nH]c2ccccc12)C(=O)O)[C@@H](C)CC` (H-CSCSSLMDKECVYFCALDIIW-OH; disulfide 1-15, 3-11) returned a Kd at Endothelin-1 receptor [3] of 51.9 nM. In addition, in the experiment listed under Oryctolagus cuniculus, the midpoint of the response, the EC50, lay at 31 nM.
As to `CC[C@H](C)[C@H](NC(=O)[C@H](CC(=O)O)NC(=O)[C@H](C)NC(=O)[C@H](Cc1c[nH]cn1)NC(=O)[C@@H]1CSSC[C@H](N)C(=O)N[C@@H](CO)C(=O)N[C@H]2CSSC[C@H](NC(=O)[C@H](CCC(=O)O)NC(=O)[C@H](CCCCN)NC(=O)[C@H](CC(=O)O)NC(=O)[C@H](CCSC)NC(=O)[C@H](CC(C)C)NC(=O)[C@H](CO)NC(=O)[C@H](CO)NC2=O)C(=O)N[C@@H](C(C)C)C(=O)N[C@@H](Cc2ccc(O)cc2)C(=O)N[C@@H](Cc2ccccc2)C(=O)N1)C(=O)N[C@H](C(=O)N[C@@H](Cc1c[nH]c2ccccc12)C(=O)O)[C@@H](C)CC` (H-CSCSSLMDKECVYFCHADIIW-OH; disulfide 1-15, 3-11), the Kd on Endothelin-1 receptor [1] is 6.6 nM; on Endothelin-1 receptor [2] it was 1910 nM.
Consider `CC[C@H](C)[C@H](NC(=O)[C@H](C)NC(=O)[C@H](CC(=O)O)NC(=O)[C@H](CC(C)C)NC(=O)[C@H](Cc1c[nH]cn1)NC(=O)[C@@H]1CSSC[C@H](N)C(=O)N[C@@H](CO)C(=O)N[C@H]2CSSC[C@H](NC(=O)[C@H](CCC(=O)O)NC(=O)[C@H](CCCCN)NC(=O)[C@H](CC(=O)O)NC(=O)[C@H](CCSC)NC(=O)[C@H](CC(C)C)NC(=O)[C@H](CO)NC(=O)[C@H](CO)NC2=O)C(=O)N[C@@H](C(C)C)C(=O)N[C@@H](Cc2ccc(O)cc2)C(=O)N[C@@H](Cc2ccccc2)C(=O)N1)C(=O)N[C@@H](Cc1c[nH]c2ccccc12)C(=O)O` (H-CSCSSLMDKECVYFCHLDAIW-OH; disulfide 1-15, 3-11), for which the 50% effective concentration (EC50) in the experiment filed under Oryctolagus cuniculus came to 182 nM.
As to `CC[C@H](C)[C@H](NC(=O)[C@H](CC(=O)O)NC(=O)[C@H](CC(C)C)NC(=O)[C@H](Cc1c[nH]cn1)NC(=O)[C@@H]1CSSC[C@H](N)C(=O)N[C@@H](CO)C(=O)N[C@H]2CSSC[C@H](NC(=O)[C@H](CCC(=O)O)NC(=O)[C@H](CCCCN)NC(=O)[C@H](CC(=O)O)NC(=O)[C@H](CCSC)NC(=O)[C@H](CC(C)C)NC(=O)[C@H](CO)NC(=O)[C@H](CO)NC2=O)C(=O)N[C@@H](C)C(=O)N[C@@H](Cc2ccc(O)cc2)C(=O)N[C@@H](Cc2ccccc2)C(=O)N1)C(=O)N[C@H](C(=O)N[C@@H](Cc1c[nH]c2ccccc12)C(=O)O)[C@@H](C)CC` (H-CSCSSLMDKECAYFCHLDIIW-OH; disulfide 1-15, 3-11), in the experiment filed under Oryctolagus cuniculus, it took 130 nM to reach a half-maximal effect (EC50).
With `CC[C@H](C)[C@H](NC(=O)[C@H](CC(=O)O)NC(=O)[C@H](CC(C)C)NC(=O)[C@H](Cc1cnc[nH]1)NC(=O)[C@@H]1CSSC[C@H](N)C(=O)N[C@@H](CO)C(=O)N[C@H]2CSSC[C@H](NC(=O)[C@H](CCC(=O)O)NC(=O)[C@H](CCCCN)NC(=O)[C@H](CC(=O)O)NC(=O)[C@H](CCSC)NC(=O)[C@H](CC(C)C)NC(=O)[C@H](CO)NC(=O)[C@H](CO)NC2=O)C(=O)N[C@@H](C)C(=O)N[C@@H](Cc2ccc(O)cc2)C(=O)N[C@@H](Cc2ccccc2)C(=O)N1)C(=O)N[C@H](C(=O)N[C@@H](Cc1c[nH]c2ccccc12)C(=O)O)[C@@H](C)CC` (H-CSCSSLMDKECAYFCHLDIIW-OH; disulfide 1-15, 3-11), the dissociation constant (Kd) was found to be 31 nM on Endothelin-1 receptor [1] and 1390 nM at Endothelin-1 receptor [2].
Take `CC[C@H](C)[C@H](NC(=O)[C@H](CC(=O)O)NC(=O)[C@H](CC(C)C)NC(=O)[C@H](Cc1c[nH]cn1)NC(=O)[C@@H]1CSSC[C@H](N)C(=O)N[C@@H](CO)C(=O)N[C@H]2CSSC[C@H](NC(=O)[C@H](CCC(=O)O)NC(=O)[C@H](CCCCN)NC(=O)[C@H](CC(=O)O)NC(=O)[C@H](C)NC(=O)[C@H](C)NC(=O)[C@H](C)NC(=O)[C@H](C)NC2=O)C(=O)N[C@@H](C(C)C)C(=O)N[C@@H](Cc2ccc(O)cc2)C(=O)N[C@@H](Cc2ccccc2)C(=O)N1)C(=O)N[C@H](C(=O)N[C@@H](Cc1c[nH]c2ccccc12)C(=O)O)[C@@H](C)CC` (H-CSCAAAADKECVYFCHLDIIW-OH; disulfide 1-15, 3-11): the concentration giving a half-maximal response (EC50) in the experiment listed under Oryctolagus cuniculus is 36 nM.
As for `CC[C@H](C)[C@H](NC(=O)[C@H](C)NC(=O)[C@H](CC(C)C)NC(=O)[C@H](Cc1cnc[nH]1)NC(=O)[C@@H]1CSSC[C@H](N)C(=O)N[C@@H](CO)C(=O)N[C@H]2CSSC[C@H](NC(=O)[C@H](CCC(=O)O)NC(=O)[C@H](CCCCN)NC(=O)[C@H](CC(=O)O)NC(=O)[C@H](CCSC)NC(=O)[C@H](CC(C)C)NC(=O)[C@H](CO)NC(=O)[C@H](CO)NC2=O)C(=O)N[C@@H](C(C)C)C(=O)N[C@@H](Cc2ccc(O)cc2)C(=O)N[C@@H](Cc2ccccc2)C(=O)N1)C(=O)N[C@H](C(=O)N[C@@H](Cc1c[nH]c2ccccc12)C(=O)O)[C@@H](C)CC` (H-CSCSSLMDKECVYFCHLAIIW-OH; disulfide 1-15, 3-11), the Kd was found to be 0.7 nM on Endothelin-1 receptor [1] and 80 nM at Endothelin-1 receptor [2].
For the compound `CC[C@H](C)[C@H](NC(=O)[C@H](C)NC(=O)[C@H](CC(=O)O)NC(=O)[C@H](CC(C)C)NC(=O)[C@H](Cc1cnc[nH]1)NC(=O)[C@@H]1CSSC[C@H](N)C(=O)N[C@@H](CO)C(=O)N[C@H]2CSSC[C@H](NC(=O)[C@H](CCC(=O)O)NC(=O)[C@H](CCCCN)NC(=O)[C@H](CC(=O)O)NC(=O)[C@H](CCSC)NC(=O)[C@H](CC(C)C)NC(=O)[C@H](CO)NC(=O)[C@H](CO)NC2=O)C(=O)N[C@@H](C(C)C)C(=O)N[C@@H](Cc2ccc(O)cc2)C(=O)N[C@@H](Cc2ccccc2)C(=O)N1)C(=O)N[C@@H](Cc1c[nH]c2ccccc12)C(=O)O` (H-CSCSSLMDKECVYFCHLDAIW-OH; disulfide 1-15, 3-11), the equilibrium dissociation constant (Kd) on Endothelin-1 receptor [1] was found to be 96 nM; on Endothelin-1 receptor [2], 3120 nM.
